Data on 19 compounds can be found in patent US11066413B2, “Aminopyrimidine five-membered heterocyclic compound, and intermediate, preparation method, pharmaceutical composition and application thereof” (GUANGZHOU MAXINOVEL PHARMACEUTICALS CO., LTD., priority 2017, dated 2021).

Assay [1] concerns the target T1, hA2A receptor (Homo sapiens (Human), UniProt P29274). As to the kind of experiment: binding affinity IC50 to hA2A receptor (SPA beads, Effect Embodiment 1). The conditions noted are these: A2A receptor membrane, 1 hour at room temperature, read-out: IC50 values of compound 1 binding affinity to hA2A receptor. The procedure:
evaluation experiment of the binding affinity IC50 of the compound 1 to hA2A receptor.
Experimental procedure • 1. Preparation of the test compound. • 1) The compound mother plate (1500 rpm, 1 minute) was centrifuged; • 2) 50 Nanoliters was transferred from the compound mother plate to the reaction plate by a nano-sound sonic pipetting system; • 2. Preparation of buffer medium membrane, preparation of beads suspension; • 1) DMSO was added to the assay buffer, final concentration of DMSO was 1%; • 2) homogenized A2A receptor membrane was connected to a 1 mL syringe five times by a No. 26 needle (to avoid air bubbles); • 3) the buffer, A2A receptor membrane and ADA were mixed, and was let stand for 15 minutes at room temperature; • 4) SPA beads were added and mixed well with A2A receptor membrane; • 3. Preparation of radioisotope buffer • 4. Mix reaction reagents • 1) 20 μL of radioactive buffer solution was added into the reaction plate; • 2) 30 μL of membrane and […] suspension was added into the reaction plate; • 3) the plate was sealed and incubated for 1 hour at room temperature with vigorous mixing and shaking; • 4) the beads were precipitated for 4-5 minutes before reading. • 5) Reading with Microbeta; • 5. Data processing

Assay [2] addresses T1, hA2A receptor. As to the kind of experiment: binding affinity IC50 to hA2A receptor ([3H]-CGS 21680 filter binding, Effect Embodiment 2). Particulars: A2A membrane, [3H]-CGS 21680 (final 25 nM), 90 minutes at 25° C. The protocol:
Evaluation experiment of the binding affinity IC50 of the compounds 1-61 to hA2A receptor
40 uL of ULTIMA GOLD scintillation fluid was added to each well and the CPM (count per minute) value was read by TopCount.

By IC50 is commonly meant the concentration that inhibits the measured activity by half.

T1 sequence (P29274 whole entry): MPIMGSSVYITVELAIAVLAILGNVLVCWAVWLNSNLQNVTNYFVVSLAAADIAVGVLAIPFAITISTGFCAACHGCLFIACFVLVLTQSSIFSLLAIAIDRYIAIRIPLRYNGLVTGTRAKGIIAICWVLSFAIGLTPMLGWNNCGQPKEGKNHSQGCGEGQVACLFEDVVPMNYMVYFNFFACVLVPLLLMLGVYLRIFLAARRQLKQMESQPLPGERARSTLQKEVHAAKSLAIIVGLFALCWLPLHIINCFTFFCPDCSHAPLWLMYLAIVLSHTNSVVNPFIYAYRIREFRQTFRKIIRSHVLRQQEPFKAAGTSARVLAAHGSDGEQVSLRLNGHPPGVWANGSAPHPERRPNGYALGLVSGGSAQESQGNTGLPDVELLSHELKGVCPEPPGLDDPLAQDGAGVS

With `Nc1nc(-c2ccco2)c2c(n1)C(Cc1ccccc1F)OC2=O` (centres unmarked) [Compound 1, 2-amino-7-(2-fluorobenzyl)-4-(furan-2-yl)-5H,7H-furo[3,4-d]pyrimidin-5-one], the results for the IC50 at hA2A receptor [1] and on hA2A receptor [2] were 79 nM and 14.7 nM, respectively.

Compound `Cc1ccc(-c2nc(N)nc3c2C(=O)OC3Cc2ccc(F)cc2F)o1` (centres unmarked) [Compound 26, 2-amino-7-((2,4-difluorophenyl)methyl)-4-(5-methylfuran-2-yl)-5H,7H-furo[3,4-d]pyrimidin-5-one] came in with an IC50 at hA2A receptor [2] of 32.1 nM.

Compound `Cc1ccc(-c2nc(N)nc3c2C(=O)N(C)C3=Cc2ccccc2OC(F)(F)F)o1` [Compound 52, 2-amino-7-((2-(trifluoromethoxyl)phenyl)methylene)-4-(5-methylfuran-2-yl)-6-methyl-5H,6H,7H-pyrrolo[3,4-d]pyrimidin-5-one] showed an IC50 on hA2A receptor [2] of 3.6 nM.

For the compound `Cn1c(=O)n(Cc2ccccc2F)c2nc(N)nc(-c3ccco3)c21` [Compound 41, 2-amino-9-((2-fluorophenyl)methyl)-6-(furan-2-yl)-7-methyl-8,9-dihydro-7H-purinyl-8-one], the IC50 at hA2A receptor [2] was 43.5 nM.

On hA2A receptor [2], `Cc1ccc(-c2nc(N)nc3c2C(=O)N(C)C3=Cc2ccccc2F)o1` [Compound 50, 2-amino-7-((2-fluorophenyl)methylene)-4-(5-methylfuran-2-yl)-6-methyl-5H,6H,7H-pyrrolo[3,4-d]pyrimidin-5-one] showed an IC50 of 7.3 nM.

The compound `Nc1nc(-c2ccccn2)c2c(n1)C(Cc1ccccc1)OC2=O` (centres unmarked) [Compound 24, 2-amino-7-benzyl-4-(pyridin-2-yl)-5H,7H-furo[3,4-d]pyrimidin-5-one] came in with a half-inhibitory concentration (IC50) at hA2A receptor [2] of 918 nM.

`Cc1ccc(-c2nc(N)nc3c2C(=O)N(C)C3Cc2cc[n+]([O-])cc2)o1` (centres unmarked) [Compound 58, 4-((2-amino-6-methyl-4-(5-methylfuran-2-yl)-5-carbonyl-5H-pyrrolo[3,4-d]pyrimidin-7(6H)-ene)methyl)-N-oxide pyridine]: on hA2A receptor [2], the IC50 was 21 nM.

Compound `Nc1nc(-c2ccco2)c2c(n1)[C@H](Cc1ccccc1)OC2` [Compound 33, (S)-7-benzyl-4-(furan-2-yl)-5,7-dihydrofuro[3,4-d]pyrimidin-2-amine] registered an IC50 at hA2A receptor [2] of 275 nM.

With `Cn1c(=O)n(Cc2ccc(F)cc2F)c2nc(N)nc(-c3ccco3)c21` [Compound 35, 2-amino-9-((2,4-difluorophenyl)methyl)-6-(furan-2-yl)-7-methyl-8,9-dihydro-7H-purinyl-8-one], the IC50 at hA2A receptor [2] stood at 30.1 nM.

`Cc1ccc(-c2nc(N)nc3c2C(=O)OC3(C)Cc2ccccc2F)o1` (centres unmarked) [Compound 43, 2-amino-7-((2-fluorophenyl)methyl)-7-methyl-4-(5-methylfuran-2-yl)-5H,7H-furo[3,4-d]pyrimidin-5-one] yielded an IC50 on hA2A receptor [2] of 992 nM.

On hA2A receptor [2], `N#Cc1ccc(CC2OC(=O)c3c(-c4ccco4)nc(N)nc32)cc1` (centres unmarked) [Compound 4] gave an IC50 of 249 nM.

`Cc1ccc(-c2nc(N)nc3c2C(=O)N(C)C3Cc2ccc(F)cc2C(F)(F)F)o1` (centres unmarked) [Compound 57, 2-amino-7-((2-(trifluoromethyl)-4-fluorophenyl)methyl)-4-(5-methylfuran-2-yl)-6-methyl-5H,6H,7H-pyrrolo[3,4-d]pyrimidin-5-one] had an IC50 at hA2A receptor [2] of 152 nM.

Take `Cc1ccc(-c2nc(N)nc3c2C(=O)OC3Cc2ccccc2F)o1` (centres unmarked) [Compound 27, 2-amino-7-((2-fluorophenyl)methyl)-4-(5-methylfuran-2-yl)-5H,7H-furo[3,4-d]pyrimidin-5-one]: the IC50 at hA2A receptor [2] was 21 nM.

In the case of `Cc1ccc(-c2nc(N)nc3c2C(=O)N(C)/C3=C\c2ccccc2C(F)(F)F)o1` [Compound 51, 2-amino-7-((2-(trifluoromethyl)phenyl)methylene)-4-(5-methylfuran-2-yl)-6-methyl-5H,6H,7H-pyrrolo[3,4-d]pyrimidin-5-one], the IC50 at hA2A receptor [2] is 4.7 nM.

In turn, `Cc1ccc(-c2nc(N)nc3c2C(=O)N(C)C3Cc2ccccc2F)o1` (centres unmarked) [Compound 55, 2-amino-7-((2-fluorophenyl)methyl)-4-(5-methylfuran-2-yl)-6-methyl-5H,6H,7H-pyrrolo[3,4-d]pyrimidin-5-one] gave an IC50 at hA2A receptor [2] of 29.3 nM.

On hA2A receptor [2], “2-amino-6-(5-methylfuran-2-yl)-9-(2-(trifluoromethyl)phenyl)-8(9H)-carbonyl-7H-purine [Compound 60]” displayed an IC50 of 177 nM.

As to `Nc1nc(-c2ccco2)c2c(n1)C(Cc1cc(C(F)(F)F)cc(C(F)(F)F)c1)OC2=O` (centres unmarked) [Compound 20, 2-amino-7-((3,5-di(trifluoromethyl)phenyl)methyl)-4-(furan-2-yl)-5H,7H-furo[3,4-d]pyrimidin-5-one], the IC50 on hA2A receptor [2] stood at 299 nM.

`Cc1ccc(-c2nc(N)nc3c2C(=O)N(C)C3Cc2ccncc2)o1` (centres unmarked) [Compound 59, 2-amino-6-methyl-4-(5-methylfuran-2-yl)-7-(pyridin-4-ylmethyl)-6,7-dihydro-5-carbonyl-5H-pyrrolo[3,4-d]pyrimidine] yielded an IC50 on hA2A receptor [2] of 179 nM.

`Nc1nc(-c2ccc(Br)o2)c2c(n1)C(Cc1ccccc1OC(F)(F)F)OC2=O` (centres unmarked) [Compound 37, 2-amino-7-((2-(trifluoromethoxyl)phenyl)methyl)-4-(5-bromofuran-2-yl)-5H,7H-furo[3,4-d]pyrimidin-5-one] displayed an IC50 at hA2A receptor [2] of 67.4 nM.
